Experimental data reported in patent US20110065739A1, “NOVEL ISOXAZOLE DRIVATIVE” (priority 2008, published 2011).
Where a name gives a salt, the structure may show the parent alone.

What follows are compounds tested against T1, human GPR120 (Homo sapiens, UniProt Q5NUL3) (assay: Measurement of intracellular calcium concentration (FLIPR), GPR120 agonist action). Conditions: 10 μmol/l test compound, human GPR120 expression CHO cells, Fluo-4 AM.
T1 construct: expressed in transfected cells
T1 sequence (Q5NUL3 1-361): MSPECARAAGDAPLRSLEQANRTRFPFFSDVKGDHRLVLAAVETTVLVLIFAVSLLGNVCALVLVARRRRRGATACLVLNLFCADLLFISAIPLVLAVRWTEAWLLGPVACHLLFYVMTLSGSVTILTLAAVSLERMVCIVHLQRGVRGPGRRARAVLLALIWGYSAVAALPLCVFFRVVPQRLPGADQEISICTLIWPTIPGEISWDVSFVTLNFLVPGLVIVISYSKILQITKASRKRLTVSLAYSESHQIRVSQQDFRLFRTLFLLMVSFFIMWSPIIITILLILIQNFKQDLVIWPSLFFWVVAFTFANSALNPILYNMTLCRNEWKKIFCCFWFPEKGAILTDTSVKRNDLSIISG
Assay type: cell-based
Procedure: Using Lipofectamine 2000 (Invitrogen), cDNA of GPR120 receptor was transfected into CHO/NFAT-BLA cells, and drug-resistant cells were isolated to obtain GPR120 stable expression strains. The GPR120-expressed CHO cells were cultured in DMEM/F12 medium containing 10% fetal bovine serum, 100 units/ml penicillin, 0.1 mg/ml streptomycin sulfate, 250 μg/ml Zeocin, 500 μg/mL Geneticin and 15 mM HEPES. On the day before the measurement day, 4 μM Fluo-4 AM (fluorescence calcium indicator reagent) was incubated to be introduced into the human GPR120 expression CHO cells plated at 20000 cells per well of a 96-well black plate (ViewPlate; Packard) in the presence of 2.5 mM probenecid in a CO2 incubator for 1 hour. To the cells was added the test compound diluted with HBSS solution containing 20 mM HEPES and 2.5 mM probenecid. Variations in the intracellular calcium concentration were measured by Fluorescence Imaging Plate Reader (FLIPR; Molecular Devices) to examine the agonist action, and EC50 values were calculated.

| Agonistic activity at 10 μmol/l (%) | Compound |
| --- | --- |
| 100 | CC(C)Cc1cccc(CC(C)Oc2ccc(-c3cc(O)no3)cc2)c1 (stereo not drawn) [Example 53, 5-{4-[2-(3-isobutylphenyl)-1-methylethoxy]phenyl}isoxazol-3-01] |
| 99 | CC(C)Oc1cc(CC(C)Oc2ccc(-c3cc(O)no3)cc2)ccn1.Cl (stereo not drawn) [Example 62] |

Continued, compound first:

| Compound | Agonistic activity at 10 μmol/l (%) |
| --- | --- |
| CC(C)Oc1cccc(C(C)(C)COc2ccc(-c3cc(O)no3)cn2)c1.O=C(O)C(F)(F)F [Example 44] | 99 |
| N-[4-(3-hydroxyisoxazol-5-yl)benzyl]-3-isopropoxy-N-methylaniline [Example 65] | 76 |
| N-[4-(3-hydroxyisoxazol-5-yl)benzyl]-3-isopropoxy-N-methylbenzenesulfonamide [Example 51] | 77 |

Same assay, conditions: 10 μmol/l test compound, human GPR120 expression CHO cells, Fluo-4 AM, read-out: Agonistic activity at 10 μmol/l (%)

| activation at 10 µM [%] | Compound |
| --- | --- |
| 80 | CC(C)Oc1cccc(C(C)SCc2ccc(-c3cc(O)no3)cc2)c1 (stereo not drawn) [Example 50, 5-[4-({[1-(3-isopropoxyphenyl)ethyl]thio}methyl)phenyl]isoxazol-3-ol] |
| 96 | CC(C)Oc1cccc(OC(C)Cc2ccc(-c3cc(O)no3)cc2)c1 (stereo not drawn) [Example 52, 5-{4-[2-(3-isopropoxyphenoxy)propyl]phenyl}isoxazol-3-ol] |
| 100 | CC(C)Oc1cccc(CC(C)Oc2ccc(-c3cc(O)no3)cc2F)c1 (stereo not drawn) [Example 54, 5-{3-fluoro-4-[2-(3-isopropoxyphenyl)-1-methylethoxy]phenyl}isoxazol-3-ol] |
| 101 | CC(C)Oc1cccc(SC(C)Cc2ccc(-c3cc(O)no3)cc2)c1 (stereo not drawn) [Example 55, 5-(4-{2-[(3-isopropoxyphenyl)thio]propyl}phenyl)isoxazol-3-ol] |
| 96 | CCOc1cccc(CC(C)Oc2ccc(-c3cc(O)no3)cc2F)c1 (stereo not drawn) [Example 56, 5-{4-[2-(3-ethoxyphenyl)-1-methylethoxy]-3-fluorophenyl}isoxazol-3-ol] |
| 98 | CC(C)Oc1cccc(C(F)(F)COc2ccc(-c3cc(O)no3)c(F)c2)c1 [Example 57, 5-{4-[2,2-difluoro-2-(3-isopropoxyphenyl)ethoxy]-2-fluorophenyl}isoxazol-3-ol] |
| 91 | CC(C)Oc1cccc(N(C)C(C)Cc2ccc(-c3cc(O)no3)cc2)c1 (stereo not drawn) [Example 58, 5-(4-{2-[(3-isopropoxyphenyl)(methyl)amino]propyl}phenyl)isoxazol-3-ol] |
| 96 | CC(Cc1cccc(OC(C)C)c1)Nc1ccc(-c2cc(O)no2)cc1 (stereo not drawn) [Example 59, 4-(3-hydroxyisoxazol-5-yl)-N-[2-(3-isopropoxyphenyl)-1-methylethyl]aniline Trifluoroacetate] |
| 65 | CC(C)Oc1cccc(CCN(C)c2ccc(-c3cc(O)no3)cc2)c1 [Example 60, 4-(3-hydroxyisoxazol-5-yl)-N-[2-(3-isopropoxyphenyl)ethyl]-N-methylaniline Trifluoroacetate] |
| 79 | COc1cc(-c2cc(O)no2)ccc1OC(C)Cc1cccc(OC(C)C)c1 (stereo not drawn) [Example 61, 5-{4-[2-(3-isopropoxyphenyl)-1-methylethoxy]-3-methoxyphenyl}isoxazol-3-ol] |
| 106 | CC(C)Oc1cc(C[C@H](C)Oc2ccc(-c3cc(O)no3)cc2)ccn1 [Example 63, 5-(4-(((1S)-1-methyl-2-(2-((1-methylethyl)oxy)pyridin-4-yl)ethyl)oxy)phenyl)isoxazol-3-ol Sodium Salt] |
| 104 | CC(C)Oc1cc(C[C@@H](C)Oc2ccc(-c3cc(O)no3)cc2)ccn1 [Example 64, 5-(4-(((1R)-1-methyl-2-(2-((1-methylethyl)oxy)pyridin-4-yl)ethyl)oxy)phenyl)isoxazol-3-ol Sodium Salt] |

The remaining lines, values behind:

| Compound | activation at 10 µM [%] |
| --- | --- |
| CC(C)Oc1cccc(C(=O)COc2ccc(-c3cc(O)no3)cc2)c1 [Example 42, 2-[4-(3-hydroxyisoxazole-5-yl)phenoxy]-1-(3-isopropoxyphenyl)ethanone] | 98 |
| CCOc1cccc(CC(C)Oc2ccc(-c3cc(O)no3)cn2)c1 (stereo not drawn) [Example 43, 2-[2-(3-ethoxyphenyl)-1-methylethoxy]-5-(3-hydroxyisoxazole-5-yl)pyridinium Trifluoroacetate] | 94 |
| CC(Cc1cccc(N(C)C)c1)Oc1ccc(-c2cc(O)no2)cc1 (stereo not drawn) [Example 45, 3-{2-[4-(3-hydroxyisoxazol-5-yl)phenoxy]propyl}-N,N-dimethylaniline Hydrochloride] | 85 |
| CC(C)Oc1cccc(C(=O)C(C)Oc2ccc(-c3cc(O)no3)cc2)c1 (stereo not drawn) [Example 46, 2-[4-(3-hydroxyisoxazol-5-yl)phenoxy]-1-(3-isopropoxyphenyl)propan-1-one] | 91 |
| CC(C)Oc1cccc(C(C)OCc2ccc(-c3cc(O)no3)cc2)c1 (stereo not drawn) [Example 47, 5-(4-{[1-(3-isopropoxyphenyl)ethoxy]methyl}phenyl)isoxazol-3-ol] | 92 |
| CC(C)Oc1cccc(N(C)CCc2ccc(-c3cc(O)no3)cc2)c1 [Example 48, N-{2-[4-(3-hydroxyisoxazol-5-yl)phenyl]ethyl}-3-isopropoxy-N-methylaniline Trifluoroacetate] | 92 |
| CC(C)Oc1cccc(CN(C)C(C)c2ccc(-c3cc(O)no3)cc2)c1 (stereo not drawn) [Example 49, 1-[4-(3-hydroxyisoxazol-5-yl)phenyl]-N-(3-isopropoxybenzyl)-N-methylethanamine Trifluoroacetate] | 84 |
